Data: patent US20040191334A1, “Use of transhinone derivates as cholinesterase inhibitors in treating related diseases” (priority 2003, published 2004)

Experiments:
[1] = molecular target: T1, Human acetylcholinesterase (hAChE) (Homo sapiens, UniProt P22303); assay: Ellman assay, human acetylcholinesterase inhibition; assay type: biochemical; settings: for effect on AChE inhibition (in words): selected active components, FIG. 2 and 3
T1 construct: purchased Sigma
Method: The screening for modest cholinesterease inhibitors by the method of Ellman assay was used. Human acetylcholinesterase (hAChE) in buffer was added to the test chemicals/TCM extract followed by the addition of acetylthiocholine (ATCI) substrates and Ellman's reagent, (5′5-dithio-bis-(2-nitrobenzoate), DTNB). The AChE inhibitory activity was monitored by the release of thiocholine which was then reacted with DTNB to form a bright yellow product. The optical densities of the color product formed was spectrophotometrically determined.
After 10 minutes, the optical densities were measured in a 96-well plate reader at 415 nm. Optical densities was inversely proportional to the inhibiting activity.
Selected active components were dissolved in 50% DMSO. 100% DMSO was not recommended in this assay as it lowers the enzyme vitality.
Ellman assay was performed on the selected active components, protocatechualdehyde (MW=138.12), cryptotanshinone (MW=296), salvianic acid B (MW=718) and dihydrotanshinone I (MW=278). 10-fold dilution was made with highest concentration at 40 μM. (FIG. 2)
10-fold dilution was made with the highest concentration at 80 μM. (FIG. 3)

[2] = molecular target: T2, butrylcholinesterase (hBChE) (Homo sapiens, UniProt P06276); assay: Ellman assay with butrylcholinesterase (specificity); assay type: biochemical; settings: hAChE run in parallel; FIGS. 4a and 4b
T2 construct: purchased Sigma
T2 sequence (P06276 29-602): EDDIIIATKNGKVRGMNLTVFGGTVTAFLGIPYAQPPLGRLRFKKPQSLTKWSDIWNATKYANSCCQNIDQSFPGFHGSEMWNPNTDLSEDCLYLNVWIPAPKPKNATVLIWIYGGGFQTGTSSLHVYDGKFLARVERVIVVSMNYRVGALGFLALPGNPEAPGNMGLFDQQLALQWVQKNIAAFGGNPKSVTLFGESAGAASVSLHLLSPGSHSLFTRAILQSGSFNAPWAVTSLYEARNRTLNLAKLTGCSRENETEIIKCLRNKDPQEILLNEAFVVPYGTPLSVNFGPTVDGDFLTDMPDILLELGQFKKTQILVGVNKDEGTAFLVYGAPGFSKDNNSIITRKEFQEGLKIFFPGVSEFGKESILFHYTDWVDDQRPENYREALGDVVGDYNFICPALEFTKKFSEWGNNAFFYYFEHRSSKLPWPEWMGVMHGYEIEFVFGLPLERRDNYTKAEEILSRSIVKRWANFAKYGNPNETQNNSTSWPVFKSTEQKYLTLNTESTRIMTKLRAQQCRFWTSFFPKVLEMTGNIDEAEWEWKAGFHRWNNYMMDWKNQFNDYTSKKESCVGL
Text: In order to test the specificity of cryptotanshinone and dihydrotanshinone I towards hAChE, butrylcholinesterase (hBChE) instead of hAChE was used in Ellman assay. hBChE is concentrated in […] and it is named as pseudoesterase as it has very homology as hAChE.
Ellman assay was preformed as mentioned, except that hBChE (commercially obtained from Sigma.) was used. Ellman assay using hAChE was also preformed in parallel for comparison.

[3] = test system: neuronal cell line-SHSY5Y; assay: MTT cytotoxicity assay on SHSY5Y; assay type: cell-based; settings: FIG. 5a
Text: (§1) MTT assay was used to check for the toxicity of the selected primary hAChE inhibitors. Since only metabolic active cell can cleave the tetrazolium salt MTT and form a formazen dye. The O.D. measure at 540 nm is directly proportional to the number of viable cell.

[4] = test system: mouse neuronal cell line N1E-115; assay: MTT cytotoxicity assay on N1E-115; assay type: cell-based; settings: FIG. 5b
Text: as §1

[5] = test system: Gram positive bacteria; settings: broad range of Gram positive bacteria; cited from earlier work
[6] = test system: interleukin-12 (IL-12) and interferon-gamma (IFN-gamma) production; settings: compared with cryptotanshinone and tanshinone I; cited from earlier work

T1 sequence (P22303 32-614): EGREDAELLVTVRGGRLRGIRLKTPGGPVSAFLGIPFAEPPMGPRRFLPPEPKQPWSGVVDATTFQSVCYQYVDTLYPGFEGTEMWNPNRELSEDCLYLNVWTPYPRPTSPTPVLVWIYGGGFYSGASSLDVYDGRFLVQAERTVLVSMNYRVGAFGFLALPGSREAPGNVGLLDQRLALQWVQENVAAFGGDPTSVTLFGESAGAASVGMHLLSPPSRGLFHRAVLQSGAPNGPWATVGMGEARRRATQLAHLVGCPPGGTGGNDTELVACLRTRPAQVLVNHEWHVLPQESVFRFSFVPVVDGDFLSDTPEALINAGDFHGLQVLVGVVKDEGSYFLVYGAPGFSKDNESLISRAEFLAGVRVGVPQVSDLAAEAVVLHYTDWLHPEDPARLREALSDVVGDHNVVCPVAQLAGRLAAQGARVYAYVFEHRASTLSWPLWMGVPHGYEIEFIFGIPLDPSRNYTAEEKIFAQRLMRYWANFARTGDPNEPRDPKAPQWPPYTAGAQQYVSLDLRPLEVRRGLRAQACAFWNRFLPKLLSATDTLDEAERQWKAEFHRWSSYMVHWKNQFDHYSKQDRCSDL

SMILES | effect on AChE inhibition (in words) [1] | IC50 [1] | selectivity for AChE versus BChE [2] | antibacterial activity [5] | MTT cytotoxicity ([3]; 1 μM) | MTT cytotoxicity ([4]; N1E-115, 1 μM) | further results
Cc1coc2c1C(=O)C(=O)c1c-2ccc2c1CCCC2(C)C [tanshinone IIA, reference compound] | little effect |  |  |  |  |  | 
O=Cc1ccc(O)c(O)c1 [protocatechualdehyde, reference compound] | little effect |  |  |  |  |  | 
C[C@H]1COC2=C1C(=O)C(=O)c1c2ccc2c1CCCC2(C)C [cryptotanshinone] |  | 5 to 8 µM | higher selectivity for AChE than BChE | antibacterial activity |  |  | MTT cytotoxicity ([3]; 1-50 μM): No significant cytotoxicity; MTT cytotoxicity ([4]; N1E-115, 1-50 μM): No significant cytotoxicity
Cc1coc2c1C(=O)C(=O)c1c-2ccc2c(C)cccc12 [tanshinone I] |  | ~70 µM |  |  | No significant cytotoxicity | No significant cytotoxicity | 
O=C(C=Cc1ccc(O)c2c1C(C(=O)OC(Cc1ccc(O)c(O)c1)C(=O)O)C(c1ccc(O)c(O)c1)O2)OC(Cc1ccc(O)c(O)c1)C(=O)O (centres unmarked) [salvianic acid B, reference compound] | little effect |  |  |  |  |  | 
Cc1cccc2c3c(ccc12)C1=C(C(=O)C3=O)[C@@H](C)CO1 [dihydrotanshinone I] |  | 0.5 to 0.8 µM | higher selectivity for AChE than BChE | antibacterial activity | No significant cytotoxicity | No significant cytotoxicity | inhibition of IL-12 and IFN-gamma production [6]: effectively inhibit
